According to patent US20130190324A1, “TOPICAL OCULAR DRUG DELIVERY” (The Regents of the University of Colorado, a body corporate, priority 2011, published 2013):

Assays:
[1] = test system: calf sclera-choroid-RPE (SCRPE); test: In vitro transport of substrate cassette across normoxic and hypoxic calf SCRPE; settings: for apparent permeability (Papp) across hypoxic vs normoxic tissue (in words) / transport across hypoxic vs normoxic tissue (in words): calf SCRPE; for transport across hypoxic vs normoxic tissue (in words): cassette 100 μM
Description: (§1) Animals used in this study were those that were sacrificed as part of other experiments approved by the Institutional Animal Care Committee of the Colorado State University (Fort Collins) and University of Colorado Anschutz Medical campus. Hypoxic and normoxic calf eyes were obtained from the Department of Physiology, School of Veterinary Medicine, Colorado State University (Fort Collins, Colo.). Briefly, 1 day old male Holstein calves (n=4) were kept in hypobaric hypoxic chambers (PB=445 mm Hg) for 2 weeks. For control experiment, age matched calves (n=4) were kept at ambient altitude (PB=650 mm Hg) and normoxia for two weeks. Hypoxic and normoxic rat eyes were obtained from the Department of Medicine, University of Colorado Anschutz Medical campus (Aurora, Colo.). Sprague Dawley rats (n=4) were maintained in hypobaric hypoxic chambers (PB=380 mm Hg) for 6 weeks and age matched controls were kept at ambient pressure and normoxia.
(§2) In vitro transport studies across hypoxic and control calf cornea and sclera-choroid-RPE (SCRPE) were carried using cassette dosing approach. A cassette of drug transporter substrates, Gly-Sar (PEPT), valacylovir (ATB^0+), MPP^+ (OCT), and phenylacetic acid (MCT) at a concentration of 100 μM each in assay buffer was prepared. Briefly, the calf eyes were harvested immediately after euthanasia and transferred to the laboratory on ice. Upon arrival in the lab, the eyes were washed with assay buffer and cleaned from muscle and unwanted tissues. Anterior and posterior parts were separated by circumferential cut at the limbus. Vitreous was removed and the neural retina was separated from the choroid-RPE by filling the eye cup with assay buffer. The retina afloat in assay buffer was isolated and the eye cup was divided into two pieces (˜1.5×1.5 cm) of sclera-choroid-RPE. Isolated tissues were mounted on modified Ussing chambers (Navicyte, Sparks, Nev.) such that the episcleral side of SCRPE or epithelial side of cornea was facing the donor chamber and retinal side or endothelial side of the cornea was facing the receiver chamber. The chambers were filled with 1.5 ml of assay buffer at 37° C. with (donor side) or without (receiver side) the cocktail of drug transporter substrates. For the study of effect of transporter inhibitors, cocktail mixture (500 μM) of transporter inhibitors was added on both donor and acceptor sides.
(§3) During the transport study, the bathing fluids were maintained at 37° C. using circulating warm water. The pH of the fluids was maintained at pH 7.4 using 95% air-5% CO2 aeration. Samples were collected (200 μL) from receiver side every hour for 6 hours and the removed volume was replaced with fresh assay buffer pre-equilibrated to 37° C. Drug levels were analyzed using a LC-MS/MS assay. Permeation data were corrected for dilution of the receiver concentrations with sample volume replenishment.
(§4) Analyte concentrations in transport study samples were measured using LC-MS/MS method after 5-fold dilution with acetonitrile to reduce the salt concentrations. A cassette analysis method was developed for simultaneous analysis of Gly-Sar, valacylovir, and MPP Phenyl acetic acid was analyzed separately with a negative ionization method and a normal phase separation method. An API-3000 triple quadrupole mass spectrometry (Applied Biosystems, Foster City, Calif., USA) coupled with a PerkinElmer series-200 liquid chromatography (Perkin Elmer, Waltham, Mass., USA) system was used for analysis. Gly-Sar, valacylovir and MPP were separated on Supelco C-5 column (2.1×10 mm, 3 μm) using water containing 0.1% formic acid (A) and acetonitrile:methanol (50:50 v/v) containing 0.1% formic acid (B) as mobile phase. A linear gradient elution at a flow rate of 0.3 ml/min with a total run time of 9 min was employed. Phenyl acetic acid was separated in normal phase separation mode on Obelisc-N silica column (2.1×10 mm, 3 μM) using 5 mM ammonium formate at pH 3.5 (A) and acetonitrile (B) as mobile phase.

human cornea = test: In vitro transport of transporter substrate cassette across human cornea; settings: for transport in presence of transporter inhibitor (in words): apical to basal, inhibitor cocktail 500 μM
Method: In vitro transport studies across human cornea and sclera-choroid-RPE (SCRPE) were carried out according to previously published method using the cassette dosing approach. Briefly, cassette of drug transporter substrate including Gly-Sar (PEPT), L-tryptophan (ATB^0+), MPP^+ (OCT), and phenyl acetic acid (MCT) at concentration of 100 μM in assay buffer was prepared. Briefly, the human eyes were washed with assay buffer and cleaned from muscle and conjunctiva tissues, and anterior and posterior parts were separated by giving circumferential cut behind the limbus. Small sclera part was left with cornea, which helps in mounting of cornea on Ussing chambers. Neural retina was separated from the choroid-RPE by filling the eye cup with assay buffer, and floating retina was collected. After separation of retina, eye cup was divided into two rectangular pieces (˜1.5×1.5 cm) of sclera-choroid-RPE. Isolated tissues were mounted on modified Ussing chambers (Navicyte, Sparks, Nev.) such that the episcleral side of SCRPE or epithelial side of cornea was facing the donor chamber and retinal side or endothelial side of cornea is facing the receiver chamber. To study the effect of directionality on transport, one set of Ussing chambers mounted so that sclera side facing the donor side and another set was mounted so that choroid-RPE facing the donor side. […] The chambers were filled with 1.5 ml of assay buffer with (donor side) or without (receiver side) the cocktail of drug transporter substrates. For study of effect of transporter inhibitors, cocktail mixture (500 μM) of transporter inhibitor was added on both donor and acceptor side.
(§5) During the transport study, the bathing fluids were maintained at 37° C. using a circulating warm water and pH 7.4 using 95% air-5% CO2 aeration. Samples were collected (200 μL) form receiver side every hour for 6 hr and the lost volume was compensated with fresh assay buffer pre-equilibrated at 37° C. The drug levels were analyzed using a LC-MS/MS assay. Permeation data were corrected for dilution of the receiver solution with sample volume replenishment.
Analytes concentrations in transport study samples were analyzed using LC-MS/MS method after 5-fold dilution with acetonitrile to reduce the salt concentrations. […] Phenyl acetic acid was analyzed separately in negative ionization method and normal phase separation method. […] Gly-Sar, L-tryptophan, and MPP^+ were analyzed in positive ionization mode with following multiple reaction monitoring (MRM) transitions: 147→90 (Gly-Sar); 205→188 (L-tryptophan); 170→128 (MPP^+). Phenyl acetic acid was analyzed in negative ionization mode with following multiple reaction monitoring (MRM) transitions: 135→91 (Phenyl acetic acid).

[2] = test system: human sclera-choroid-RPE (SCRPE); test: In vitro transport of transporter substrate cassette across human sclera-choroid-RPE; settings: human SCRPE; for sclera to retina transport in presence of transporter specific inhibitor (in words): inhibitor cocktail 500 μM; for sclera to retina transport compared with retina to sclera transport (in words): substrate cassette 100 μM
Method: In vitro transport studies across human cornea and sclera-choroid-RPE (SCRPE) were carried out according to previously published method using the cassette dosing approach. Briefly, cassette of drug transporter substrate including Gly-Sar (PEPT), L-tryptophan (ATB^0+), MPP^+ (OCT), and phenyl acetic acid (MCT) at concentration of 100 μM in assay buffer was prepared. Briefly, the human eyes were washed with assay buffer and cleaned from muscle and conjunctiva tissues, and anterior and posterior parts were separated by giving circumferential cut behind the limbus. Small sclera part was left with cornea, which helps in mounting of cornea on Ussing chambers. Neural retina was separated from the choroid-RPE by filling the eye cup with assay buffer, and floating retina was collected. After separation of retina, eye cup was divided into two rectangular pieces (˜1.5×1.5 cm) of sclera-choroid-RPE. Isolated tissues were mounted on modified Ussing chambers (Navicyte, Sparks, Nev.) such that the episcleral side of SCRPE or epithelial side of cornea was facing the donor chamber and retinal side or endothelial side of cornea is facing the receiver chamber. To study the effect of directionality on transport, one set of Ussing chambers mounted so that sclera side facing the donor side and another set was mounted so that choroid-RPE facing the donor side. The effect of directionality of transport across cornea was not evaluated. The chambers were filled with 1.5 ml of assay buffer with (donor side) or without (receiver side) the cocktail of drug transporter substrates. For study of effect of transporter inhibitors, cocktail mixture (500 μM) of transporter inhibitor was added on both donor and acceptor side.
as §5
Analytes concentrations in transport study samples were analyzed using LC-MS/MS method after 5-fold dilution with acetonitrile to reduce the salt concentrations. Cassette analysis method was developed for simultaneous analysis of Gly-Sar, L-tryptophan and MPP^+. Phenyl acetic acid was analyzed separately in negative ionization method and normal phase separation method. An API-3000 triple quadrupole mass spectrometry (Applied Biosystems, Foster City, Calif., USA) coupled with a PerkinElmer series-200 liquid chromatography (Perkin Elmer, Walthm, Mass., USA) system was used for analysis. Gly-Sar, L-tryptophan and MPP^+ were separated on Supelco C-5 column (2.1×10 mm, 3 μm) using water containing 0.1% formic acid (A) and acetonitrile:methanol (50:50 v/v) containing 0.1% formic acid (B) as mobile phase and a linear gradient elution at a flow rate of 0.3 ml/min with total run time of 9 min. Phenyl acetic acid was separated in normal phase separation mode using Obelisc-N silica column (2.1×10 mm, 3 μM) using 5 mM ammonium formate, pH 3.5 (A) and acetonitrile (B) as mobile phase in linear gradient mode at flow rate of 0.3 ml with total run time of 6 min. Gly-Sar, L-tryptophan, and MPP^+ were analyzed in positive ionization mode with following multiple reaction monitoring (MRM) transitions: 147→90 (Gly-Sar); 205→188 (L-tryptophan); 170→128 (MPP^+). Phenyl acetic acid was analyzed in negative ionization mode with following multiple reaction monitoring (MRM) transitions: 135→91 (Phenyl acetic acid).

calf cornea = test: In vitro transport of substrate cassette across normoxic and hypoxic calf cornea; settings: for apparent permeability (Papp) across hypoxic vs normoxic tissue (in words) / transport across hypoxic vs normoxic tissue (in words): calf cornea; for transport across hypoxic vs normoxic tissue (in words): cassette 100 μM
Description: as §1, §2, §3, §4

SMILES: O=C(O)Cc1ccccc1 [phenyl acetic acid]
- apparent permeability (Papp) across hypoxic vs normoxic tissue (in words) [1]: increased by several fold in hypoxic condition
- transport across hypoxic vs normoxic tissue (in words) [1]: increased by several fold in hypoxic condition
- transport across hypoxic vs normoxic tissue (in words) ([1]; listed as phenylacetic acid): significantly higher across hypoxic SCRPE than normoxic SCRPE
- apparent permeability (Papp) across hypoxic vs normoxic tissue (in words) ([1]; listed as phenylacetic acid): significantly higher across hypoxic SCRPE than normoxic SCRPE
- inward transport compared with outward transport (in words) (human cornea; cornea): significantly higher than outward transport
- transport in presence of transporter inhibitor (in words) (human cornea; human cornea): significantly inhibited
- sclera to retina transport in presence of transporter specific inhibitor (in words) [2]: no significant effect of inhibitor
- sclera to retina transport compared with retina to sclera transport (in words) [2]: retina to sclera transport was significantly higher than inward transport
- apparent permeability (Papp) across hypoxic vs normoxic tissue (in words) (calf cornea): significantly higher across hypoxic cornea than normoxic cornea
- transport across hypoxic vs normoxic tissue (in words) (calf cornea): significantly higher than normoxic cornea

SMILES: C[n+]1ccc(-c2ccccc2)cc1.[I-] [MPP^+, MPP^+ iodide]
- apparent permeability (Papp) across hypoxic vs normoxic tissue (in words) [1]: significantly higher across normoxic SCRPE than hypoxic SCRPE
- transport across hypoxic vs normoxic tissue (in words) [1]: significantly decreased in hypoxic calf SCRPE
- transport across hypoxic vs normoxic tissue (in words) ([1]; listed as MPP+): significantly higher across normoxic calf SCRPE than hypoxic calf SCRPE
- decrease in cumulative % transport across hypoxic tissue ([1]; hypoxic vs normoxic calf SCRPE): 61%
- transport lower in presence of OCT inhibitor metformin (human cornea; human cornea): 2.6 fold
- transport in presence of transporter inhibitor (in words) (human cornea; human cornea): significantly inhibited
- sclera to retina transport in presence of transporter specific inhibitor (in words) [2]: significantly inhibited
- inhibition of sclera to retina transport in presence of specific inhibitors ([2]; inhibitor cocktail 500 μM (metformin for MPP+)): 1.7 fold
- sclera to retina transport compared with retina to sclera transport (in words) [2]: significantly higher
- apparent permeability (Papp) across hypoxic vs normoxic tissue (in words) (calf cornea): significantly higher across normoxic cornea than hypoxic cornea
- transport across hypoxic vs normoxic tissue (in words) (calf cornea): significantly higher across normoxic calf cornea than hypoxic calf cornea
- decrease in cumulative % transport across hypoxic tissue (calf cornea; hypoxic vs normoxic calf cornea): 49%
